Some results are limits rather than exact numbers.

Tested on in one data set: not listed separately
Put plainly: Intrinsic clearance in rat liver microsomes. It counts as ADME, Microsome. For orientation: Liver microsomes are a subcellular fraction often used to study metabolism.
For orientation: microsomal CLint means the capacity of the preparation to metabolise the compound, expressed as a volume cleared per time. Lower therefore signals greater metabolic stability. `Cc1cccc(C#CCOc2ccc(Cl)c(Cl)c2)n1` yielded a microsomal CLint of 278 µL/min/mg.

The next data set deals with Metabotropic glutamate receptor 5 (Homo sapiens, UniProt P41594). Put plainly: Activity at human mGluR5 assessed as effect on glutamate-induced calcium ion mobilization by FLIPR. It counts as functional.
Sequence of Metabotropic glutamate receptor 5 (P41594 whole entry): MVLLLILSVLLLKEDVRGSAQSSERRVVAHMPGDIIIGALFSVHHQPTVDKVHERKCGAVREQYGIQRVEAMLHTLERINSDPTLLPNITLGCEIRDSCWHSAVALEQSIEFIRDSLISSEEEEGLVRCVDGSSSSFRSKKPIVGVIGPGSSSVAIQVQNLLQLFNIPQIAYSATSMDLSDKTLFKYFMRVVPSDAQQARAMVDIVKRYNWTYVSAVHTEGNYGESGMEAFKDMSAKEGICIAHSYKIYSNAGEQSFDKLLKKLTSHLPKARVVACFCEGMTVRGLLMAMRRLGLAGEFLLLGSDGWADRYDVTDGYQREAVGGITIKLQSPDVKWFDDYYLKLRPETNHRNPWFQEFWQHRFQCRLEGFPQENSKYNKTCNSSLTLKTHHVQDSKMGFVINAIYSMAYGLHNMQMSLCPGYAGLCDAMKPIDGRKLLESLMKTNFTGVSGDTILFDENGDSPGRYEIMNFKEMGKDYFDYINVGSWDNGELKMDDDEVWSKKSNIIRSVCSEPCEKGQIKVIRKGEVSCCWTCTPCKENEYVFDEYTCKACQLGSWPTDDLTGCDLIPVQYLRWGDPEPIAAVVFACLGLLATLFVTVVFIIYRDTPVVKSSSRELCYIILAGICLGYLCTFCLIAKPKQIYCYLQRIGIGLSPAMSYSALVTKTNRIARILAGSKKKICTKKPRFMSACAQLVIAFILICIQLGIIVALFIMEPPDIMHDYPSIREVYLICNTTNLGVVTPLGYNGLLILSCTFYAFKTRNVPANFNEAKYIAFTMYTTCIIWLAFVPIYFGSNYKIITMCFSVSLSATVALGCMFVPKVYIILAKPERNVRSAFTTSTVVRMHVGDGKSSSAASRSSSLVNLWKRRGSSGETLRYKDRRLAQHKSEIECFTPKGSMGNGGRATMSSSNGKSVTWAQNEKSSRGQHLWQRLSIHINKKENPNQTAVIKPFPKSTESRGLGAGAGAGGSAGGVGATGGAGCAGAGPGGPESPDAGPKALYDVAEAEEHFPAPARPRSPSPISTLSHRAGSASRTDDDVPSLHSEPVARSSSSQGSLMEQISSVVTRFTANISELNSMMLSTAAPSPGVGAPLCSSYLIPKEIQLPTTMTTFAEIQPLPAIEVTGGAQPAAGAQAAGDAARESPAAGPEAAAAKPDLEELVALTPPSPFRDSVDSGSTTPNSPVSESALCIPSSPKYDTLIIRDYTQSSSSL
The term IC50 denotes the midpoint of a concentration-inhibition curve. In the case of `COc1cccc(OCC#Cc2cnccn2)c1`, the half-inhibitory concentration (IC50) is more than 10000 nM. On the same count and under the same terms, the same measure for `Cc1cccc(C#CCOc2cccc([N+](=O)[O-])c2)n1`: 416 nM; for `COc1cccc(OCC#Cc2cc(C)ccn2)c1`: more than 10000 nM; for `Cc1cccc(C#CCOc2cccc(Cl)c2)n1`: 101 nM.

For `COc1cccc(OCC#Cc2cccc(OC)n2)c1`, the IC50 was more than 10000 nM.

`COc1cccc(OCC#Cc2ncccc2C)c1`: the IC50 is more than 10000 nM.

For `CCC(O)(CO)c1cc(F)cc(OCC#Cc2ccccn2)c1` (stereo not drawn), the 50% inhibitory concentration (IC50) was determined as 300 nM. The same measure, in the same setting: the result for `COc1cccc(OCC#Cc2ccc(C)cn2)c1` reads 7930 nM. Regarding `Cc1cccc(C#CCOc2cc(=O)[nH]c3ccccc23)n1`, the half-inhibitory concentration (IC50) was 825 nM. The same measure, in the same setting: the result for `COc1ccc(OCC#Cc2cccc(C)n2)cc1` reads 455 nM; that for `COc1cccc(OCC#Cc2nccs2)c1`, more than 10000 nM. Same read-out and setting: the same measure for `COc1cccc(OCC#Cc2cccc(C)n2)c1`: 397 nM; for `Cc1cccc(C#CCOc2ccccc2)n1`: more than 10000 nM; for `Cc1ccc(OCC#Cc2cccc(C)n2)cn1`: 2490 nM. Same read-out and setting: the result for `Cc1cccc(C#CCOc2ccccc2Cl)n1` reads more than 3000 nM; that for `COc1cccc(OCC#Cc2ccncc2)c1`, more than 10000 nM; that for `Cc1cccc(C#CCOc2ccc(Cl)cc2)n1`, 102 nM. Regarding `COc1cccc(OCC#Cc2ccccn2)c1`, the half-maximal inhibitory concentration (IC50) was 1540 nM. As to `Cc1cccc(C#CCOc2ccc(C(C)C)cc2)n1`, the concentration for half-maximal inhibition (IC50) was 83 nM. Same read-out and setting: the same measure for `COC(=O)c1cncc(OCC#Cc2cccc(C)n2)c1`: 1490 nM. With `Cc1cccc(C#CCOc2ccc(Cl)c(Cl)c2)n1`, the 50% inhibitory concentration (IC50) turned out to be 15 nM.

For the compound `Cc1ccc(OCC#Cc2cccc(C)n2)cc1`, the IC50 came to 115 nM. The same measure, in the same setting: the result for `Cc1cccc(C#CCOc2ccc3c(c2)CCCC3)n1` reads 36 nM. Consider `Cc1cccc(C#CCOc2cccnc2)n1`, for which the concentration for half-maximal inhibition (IC50) is more than 10000 nM.

The target of a further data set is Metabotropic glutamate receptor 1 (Homo sapiens, UniProt Q13255). As to the kind of experiment: Activity at human mGluR1 assessed as effect on glutamate-induced calcium ion mobilization by FLIPR. It counts as functional.
Sequence of Metabotropic glutamate receptor 1 (Q13255 whole entry): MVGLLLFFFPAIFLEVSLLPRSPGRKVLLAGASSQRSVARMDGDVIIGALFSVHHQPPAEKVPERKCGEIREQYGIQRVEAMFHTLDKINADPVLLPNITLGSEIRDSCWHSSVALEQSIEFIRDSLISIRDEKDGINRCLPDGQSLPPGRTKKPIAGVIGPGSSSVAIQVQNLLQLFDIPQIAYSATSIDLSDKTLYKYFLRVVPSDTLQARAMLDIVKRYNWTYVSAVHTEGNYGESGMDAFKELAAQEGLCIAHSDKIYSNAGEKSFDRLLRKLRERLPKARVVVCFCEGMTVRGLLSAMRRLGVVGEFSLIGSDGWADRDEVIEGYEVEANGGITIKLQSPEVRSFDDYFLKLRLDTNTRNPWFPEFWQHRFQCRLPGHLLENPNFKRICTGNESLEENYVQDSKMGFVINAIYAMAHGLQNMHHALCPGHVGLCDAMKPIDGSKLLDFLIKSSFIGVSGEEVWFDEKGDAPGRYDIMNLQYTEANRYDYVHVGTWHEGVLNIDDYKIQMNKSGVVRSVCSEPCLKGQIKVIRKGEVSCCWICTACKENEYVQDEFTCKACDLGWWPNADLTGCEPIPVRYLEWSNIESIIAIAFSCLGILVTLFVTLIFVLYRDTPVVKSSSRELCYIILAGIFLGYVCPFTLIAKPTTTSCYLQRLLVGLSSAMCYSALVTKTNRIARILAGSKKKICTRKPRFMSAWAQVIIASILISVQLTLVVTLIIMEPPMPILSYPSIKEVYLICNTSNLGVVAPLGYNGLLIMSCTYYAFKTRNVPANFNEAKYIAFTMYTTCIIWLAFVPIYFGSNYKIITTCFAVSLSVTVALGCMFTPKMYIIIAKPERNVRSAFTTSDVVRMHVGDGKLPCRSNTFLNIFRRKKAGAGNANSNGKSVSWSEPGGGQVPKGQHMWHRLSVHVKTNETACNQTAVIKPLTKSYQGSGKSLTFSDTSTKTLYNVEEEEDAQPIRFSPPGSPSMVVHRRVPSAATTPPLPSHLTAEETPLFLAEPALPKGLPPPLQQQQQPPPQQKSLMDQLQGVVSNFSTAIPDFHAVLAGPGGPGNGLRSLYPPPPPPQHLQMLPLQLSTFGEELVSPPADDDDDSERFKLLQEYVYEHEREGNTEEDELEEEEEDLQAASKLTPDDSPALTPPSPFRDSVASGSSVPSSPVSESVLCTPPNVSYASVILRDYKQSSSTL
As to `CCC(O)(CO)c1cc(F)cc(OCC#Cc2ccccn2)c1` (stereo not drawn), the half-inhibitory concentration (IC50) was not below 10000 nM. Same read-out and setting: the same measure for `COc1cccc(OCC#Cc2cccc(C)n2)c1`: more than 10000 nM; for `COc1cccc(OCC#Cc2ccccn2)c1`: more than 10000 nM.

For the origin of these results see ChEMBL document CHEMBL1149354, “A new series of pyridinyl-alkynes as antagonists of the metabotropic glutamate receptor 5 (mGluR5)” (Bioorg Med Chem Lett, 2006).
